Experimental data: patent publication US11230535B2, “CFTR regulators and methods of use thereof” (THE REGENTS OF THE UNIVERSITY OF CALIFORNIA, priority 2015, dated 2022)
Like-named read-outs stand apart in the source and are kept apart here. Positions of bridges follow the written chain, without caps; N, C: chain ends. Residues, ends and D or L forms follow the SMILES beside them.

Columns and labels:
loperamide-treated mice = assay: Loperamide-induced mouse model of constipation (3-h stool weight, pellet number, water content); conditions: oral 0.5 mg/kg, loperamide-treated mice
constipation patients = conditions: cited from earlier work
human wild-type CFTR [1] = target: T1, human wild-type CFTR (Homo sapiens, UniProt P13569); assay: Short-circuit current in FRT cells expressing wild-type human CFTR; type: cell-based; design: expressed in transfected cells; conditions: 100% = 20 μM forskolin
T1 sequence (P13569 whole entry): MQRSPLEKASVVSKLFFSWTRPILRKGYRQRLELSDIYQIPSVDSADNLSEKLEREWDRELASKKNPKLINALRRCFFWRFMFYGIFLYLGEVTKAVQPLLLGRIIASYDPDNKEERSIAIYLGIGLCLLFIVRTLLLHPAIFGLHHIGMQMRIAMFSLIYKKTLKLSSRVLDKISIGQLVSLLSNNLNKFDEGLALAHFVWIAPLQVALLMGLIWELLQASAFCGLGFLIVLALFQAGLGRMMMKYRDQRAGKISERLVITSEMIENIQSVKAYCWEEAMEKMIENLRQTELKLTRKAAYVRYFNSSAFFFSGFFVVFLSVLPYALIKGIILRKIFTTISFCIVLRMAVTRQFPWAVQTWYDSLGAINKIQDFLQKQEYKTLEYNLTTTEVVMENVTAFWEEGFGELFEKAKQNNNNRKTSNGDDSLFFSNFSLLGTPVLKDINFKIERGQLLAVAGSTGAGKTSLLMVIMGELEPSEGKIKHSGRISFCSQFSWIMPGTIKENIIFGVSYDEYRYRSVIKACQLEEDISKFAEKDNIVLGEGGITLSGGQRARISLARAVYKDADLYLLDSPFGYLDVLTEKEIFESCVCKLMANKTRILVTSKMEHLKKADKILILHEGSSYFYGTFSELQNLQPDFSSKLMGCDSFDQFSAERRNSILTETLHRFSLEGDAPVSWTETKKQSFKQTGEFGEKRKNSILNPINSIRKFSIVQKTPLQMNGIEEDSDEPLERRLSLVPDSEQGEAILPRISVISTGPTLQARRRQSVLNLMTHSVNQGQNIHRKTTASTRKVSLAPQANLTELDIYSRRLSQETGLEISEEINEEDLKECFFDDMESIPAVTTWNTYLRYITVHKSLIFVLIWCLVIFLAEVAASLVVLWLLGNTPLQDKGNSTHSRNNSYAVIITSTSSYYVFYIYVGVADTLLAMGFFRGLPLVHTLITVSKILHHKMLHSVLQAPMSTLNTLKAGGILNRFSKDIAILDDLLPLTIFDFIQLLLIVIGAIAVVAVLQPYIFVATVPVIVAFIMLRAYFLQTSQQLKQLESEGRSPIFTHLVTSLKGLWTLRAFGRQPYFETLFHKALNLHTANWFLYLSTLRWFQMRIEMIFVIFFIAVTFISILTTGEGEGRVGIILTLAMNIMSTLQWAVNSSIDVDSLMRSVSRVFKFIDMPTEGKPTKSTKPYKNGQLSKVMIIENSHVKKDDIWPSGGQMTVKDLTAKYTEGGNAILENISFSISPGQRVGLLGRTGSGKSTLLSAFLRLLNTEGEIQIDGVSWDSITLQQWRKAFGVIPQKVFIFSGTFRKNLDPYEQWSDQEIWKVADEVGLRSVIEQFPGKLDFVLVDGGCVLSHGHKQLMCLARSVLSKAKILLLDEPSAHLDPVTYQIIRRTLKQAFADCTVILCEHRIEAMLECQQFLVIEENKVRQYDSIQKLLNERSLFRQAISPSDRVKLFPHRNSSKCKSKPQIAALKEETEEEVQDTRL
Protocol: Short-circuit current was measured in FRT cells stably expressing wild-type human CFTR cultured on porous filters as described. The basolateral solution contained 130 mM NaCl, 2.7 mM KCl, 1.5 mM KH2PO4, 1 mM CaCl2, 0.5 mM MgCl2, 10 mM glucose, and 10 mM Na-HEPES (pH 7.3, 37° C.). In the apical solution 65 mM NaCl was replaced by Na gluconate, and CaCl2 was increased to 2 mM, and the basolateral membrane was permeabilized with 250 μg/ml amphotericin B. Short-circuit current was measured in freshly harvested adult mouse colon at 37° C. using symmetrical Krebs-bicarbonate buffer.
(§1) Fischer rat thyroid (FRT) cells stably expressing wild-type human CFTR were cultured on Snapwell inserts (Corning Costar, Corning N.Y., USA) for short-circuit current (Isc) measurements. After 6-9 days in culture, when the transepithelial resistance was >1000 Ω/cm^2, the inserts were mounted in an Ussing chamber system (World Precision Instruments, Sarasota, Fla., USA). The basolateral solution contained 130 mM NaCl, 2.7 mM KCl, 1.5 mM KH2PO4, 1 mM CaCl2, 0.5 mM MgCl2, 10 mM glucose, and 10 mM Na-HEPES (pH 7.3). In the apical bathing solution, 65 mM NaCl was replaced by Na gluconate, and CaCl2 was increased to 2 mM. Both solutions were bubbled with air and maintained at 37° C. The basolateral membrane was permeabilized with 250 μg/ml amphotericin B (26, 27). Hemichambers were connected to a DVC-1000 voltage clamp via Ag/AgCl electrodes and 3 M KCl agar bridges for Isc recording.
Short-circuit current measurement. Short-circuit current was measured in FRT cells stably expressing wild-type human CFTR cultured on porous filters as described. The basolateral solution contained 130 mM NaCl, 2.7 mM KCl, 1.5 mM KH2PO4, 1 mM CaCl2, 0.5 mM MgCl2, 10 mM glucose, and 10 mM Na-HEPES (pH 7.3, 37° C.). In the apical solution 65 mM NaCl was replaced by Na gluconate, and CaCl2 was increased to 2 mM, and the basolateral membrane was permeabilized with 250 μg/ml amphotericin B. Short-circuit current was measured in freshly harvested adult mouse colon at 37° C. using symmetrical Krebs-bicarbonate buffer.
as §1, with “Short-circuit current. Fischer” for “Fischer”
Short-circuit current measurement. Short-circuit current measurements were done as described. Briefly, Snapwell (Corning Costar, Corning, N.Y.) inserts containing CFTR-expressing FRT cells or human bronchial epithelial cells were mounted in Ussing chambers (Physiological Instruments, San Diego, Calif.). For FRT cells the hemichambers were filled with 5 ml of HCO3^−-buffered solution (basolateral) and half-Cl^− solution (apical), and the basolateral membrane was permeabilized with 250 μg/ml amphotericin B. Symmetrical HCO3^−-buffered solutions were used for human bronchial epithelial cells. Solutions were bubbled with 95% O2/5% CO2 and maintained at 37° C., and short-circuit current was measured on a DVC-1000 voltage clamp (World Precision Instruments Inc., Sarasota, Fla.) using Ag/AgCl electrodes and 3 M KCl agar bridges.

[2] = test system: CFTR activity at the ocular surface; assay: Ocular surface potential difference (PD) in living mice; type: in vivo, mouse; conditions: CF mice lacking functional CFTR
Protocol: (§2) Open-circuit transepithelial PD were measured continuously in anesthetized mice in response to serial perfusions of different solutions over the ocular surface, as described (21). Mice were anesthetized with Avertin (2,2,2-tribromoethanol, 125 mg/kg intraperitoneal, Sigma-Aldrich, St. Louis, Mo., USA), and core temperature was maintained at 37° C. using a heating pad. Eyes were oriented with the cornea and conjunctiva facing upward and exposed by retracting the eyelid with cross-action forceps. Solutions were isosmolar (320±10 mOsM; compositions provided in ref. 21) and contained 10μ[…] Qindomethacin to prevent CFTR activation by prostaglandins. The ocular surface was perfused at 6 mL/min through plastic tubing using a multireservoir gravity pinch-valve system (ALA Scientific, Westbury, N.Y., USA) and variable-flow peristaltic pump (medium flow model; Fisher Scientific, Fair Lawn, N.J., USA). A probe catheter was fixed 1 mm above the cornea using a micropositioner and a suction cannula was positioned 3 mm from the orbit. The measuring electrode was in contact to the perfusion catheter and connected to a high-impedance voltmeter (IsoMilivolt Meter; WPI). The reference electrode was grounded via a winged 21-gauge needle filled with isosmolar saline, and inserted subcutaneously in the abdomen. Measuring and reference electrodes consisted of Ag/AgCl with 3 M KCl agar bridges.
An open-circuit potential difference (PD) method developed in our lab was used to evaluate compound activity at the ocular surface in vivo, as depicted in FIG. 3A (21). Cl^− channel function was quantified by measuring PD during continuous perfusion of the ocular surface with a series of solutions that imposed a transepithelial Cl^− gradient and contained various channel agonists and/or inhibitors. The ocular surface was first perfused with isosmolar saline to record the baseline PD. Amiloride was then added to the perfusate, followed by exchange to a low Cl^− solution in which Cl^− with an impermeant anion, gluconate. These maneuvers allow for direct visualization of CFTR activation in response to addition of candidate CFTR activators.
as §2, with “Ocular surface potential difference measurements. Open-circuit” for “Open-circuit”, “indomethacin” for “Qindomethacin”, “Measuring and reference electrodes consisted of Ag/AgCl with 3 M KCl agar bridges.” left out

human wild-type CFTR [3] = target: T1, human wild-type CFTR; assay: Cell-based plate reader (YFP iodide influx) assay of CFTR function; design: expressed in transfected cells; host or cells: Fischer rat thyroid (FRT) cells stably co-expressing YFP-H148Q; conditions: commercial analogs
Protocol: The initiate rate of I^− influx was computed by determined using exponential regression. All compound plates contained negative controls (DMSO vehicle) and positive controls (20 μM forskolin).
High-throughput screening. […] The initiate rate of I^− influx was computed by determined using exponential regression. All compound plates contained negative controls (DMSO vehicle) and positive controls ([…] forskolin).
Platereader assays of chloride channel function. CFTR activity was assayed as described. […] I^− influx was measured in a plate reader with initial baseline read for 2 s and then for 12 s after rapid addition of an I^−-containing solution. TMEM16A activity was assayed similarly as described using FRT cells co-expressing YFP and TMEM16A. Activity of non-TMEM16A CaCC was assayed as described in HT-29 cells expressing YFP. In each assay initial rates of I^− influx were computed as a linear measure of channel function.

| CFTR activation, Vmax (human wild-type CFTR [1]) [% Vmax] | % Activation (human wild-type CFTR [3]; FRT cells with YFP and wildtype CFTR, 125 nM forskolin) [%] | EC50 (human wild-type CFTR [3]; read-out: EC50 (full-dose response assay, compounds >80% activation)) [nM] | Structure (SMILES) | stool output response as % of the maximal CFTRact-J027 response (loperamide-treated mice) [%] | patients in whom the drug was effective (constipation patients; IBS-C patients) [%] | change in ocular surface PD in CF mice [2] | patients in whom the drug was effective (constipation patients; chronic constipation patients) [%] |
| --- | --- | --- | --- | --- | --- | --- | --- |
|  |  |  | CCCCC(F)(F)[C@@]1(O)CC[C@H]2[C@@H](CC(=O)[C@@H]2CCCCCCC(=O)O)O1 [lubiprostone, reference compound] | 50 | ~13 |  |  |
| ~50 | 105 | 70 | CNc1nc(Nc2ccc([N+](=O)[O-])cc2)nc(OCC(F)(F)C(F)F)n1 [K032] |  |  | no changes in PD |  |
|  |  |  | C[C@@H]1NC(=O)[C@@H]2CCCN2C(=O)[C@H](CC(N)=O)NC(=O)[C@@H]2CSSC[C@H](N)C(=O)N[C@H]3CSSC[C@H](NC1=O)C(=O)N[C@@H]([C@@H](C)O)C(=O)NCC(=O)N[C@H](C(=O)N[C@@H](Cc1ccc(O)cc1)C(=O)O)CSSC[C@H](NC(=O)[C@H](Cc1ccc(O)cc1)NC(=O)[C@H](CCC(=O)O)NC3=O)C(=O)N2 [linaclotide, reference compound] (H-CCEYCCNPACTGCY-OH; disulfide 1-6, 2-10, 5-13) | 35 |  |  | ~20 |
